Assay results from patent US20060069132A1, “Azolecarboxamide herbicides” (priority 2004, published 2006).

Columns and labels:
giant foxtail [1] = test: Test B pre-/postemergence herbicide test; assay type: in vivo, Setaria faberi; details: for Plant response rating, Foxtail, Giant: preemergence; for Foxtail, Giant plant response rating: postemergence, visual rating, scale 0 (no effect) to 100 (complete control)
Summary of the method: (§1)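 Test chemicals in a non-phytotoxic solvent mixture with surfactant were applied preemergence to seeded species and postemergence to plants 2-18 cm tall (1- to 4-leaf stage); rice and barnyardgrass were also tested in a flooded paddy at the 2-leaf stage. Visual rating versus controls after 13-15 days in greenhouse, scale 0 (no effect) to 100 (complete control).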

morningglory [2] = test: Test A pre-/postemergence herbicide test; assay type: in vivo, Ipomoea spp.
Summary of the method: (§2)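 Seeds sown in sandy loam received a preemergence directed soil spray of compound in non-phytotoxic solvent with surfactant; postemergence plants (2–10 cm, one- to two-leaf stage) were sprayed to runoff at the same time. After ~10 days in greenhouse, injury was rated visually versus untreated controls (0 = no effect, 100 = complete control).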

wild oat = test: Test B postemergence herbicide test; assay type: in vivo, Avena fatua; details: postemergence, visual rating, scale 0 (no effect) to 100 (complete control)
Summary of the method: (§3)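 Each value is a visual 0–100 response rating taken against controls 13 to 15 days after treatment in the greenhouse. Plants received formulated chemical postemergence at the 1- to 4-leaf stage or, in flooded paddy, at the 2-leaf stage.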

lambsquarters = test: Test B pre-/postemergence herbicide test; assay type: in vivo, Chenopodium album; details: for Plant response rating, Lambsquarters: preemergence; for Lambsquarters plant response rating: postemergence, visual rating, scale 0 (no effect) to 100 (complete control)
Summary of the method: as §1

blackgrass = test: Test B postemergence herbicide test; assay type: in vivo, Alopecurus myosuroides; details: postemergence, visual rating, scale 0 (no effect) to 100 (complete control)
Summary of the method: (§4)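 Greenhouse test; postemergence application to plants at 1–4 leaves (2–18 cm); paddy species at 2 leaves; evaluated visually vs controls at 13–15 days; scale 0–100 (100 = complete control).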

ducksalad = test: Test B flooded paddy test; assay type: in vivo, Heteranthera limosa; details: 1000 g ai/ha, visual rating, scale 0 to 100 (0 no effect, 100 complete control), 13 to 15 days
Summary of the method: as §4

giant foxtail [3] = test: Test A pre-/postemergence herbicide test; assay type: in vivo, Setaria faberi
Summary of the method: as §2

large crabgrass [4] = test: Test A pre-/postemergence herbicide test; assay type: in vivo, Digitaria sanguinalis
Summary of the method: as §2

barnyardgrass [5] = test: Test B flooded paddy test; assay type: in vivo, Echinochloa crus-galli; details: 1000 g ai/ha, visual rating, scale 0 to 100 (0 no effect, 100 complete control), 13 to 15 days
Summary of the method: as §4

velvetleaf [6] = test: Test A pre-/postemergence herbicide test; assay type: in vivo, Abutilon theophrasti
Summary of the method: as §2

large crabgrass [7] = test: Test B pre-/postemergence herbicide test; assay type: in vivo, Digitaria sanguinalis; details: for Plant response rating, Crabgrass, Large: preemergence; for Crabgrass, Large plant response rating: postemergence, visual rating, scale 0 (no effect) to 100 (complete control)
Summary of the method: as §1

redroot pigweed = test: Test A pre-/postemergence herbicide test; assay type: in vivo, Amaranthus retroflexus
Summary of the method: as §2

cocklebur = test: Test B pre-/postemergence herbicide test; assay type: in vivo, Xanthium strumarium; details: for Plant response rating, Cocklebur: preemergence; for Cocklebur plant response rating: postemergence, visual rating, scale 0 (no effect) to 100 (complete control)
Summary of the method: (§5)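 Greenhouse pot assay with simultaneous preemergence (treated seed) and postemergence (2–18 cm seedlings) applications of surfactant-containing, non-phytotoxic solvent formulations. Response scored visually 13–15 days later on a 0–100 scale, 100 meaning complete control.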

rice = test: Test B flooded paddy test; assay type: in vivo, Oryza sativa; details: 1000 g ai/ha, visual rating, scale 0 to 100 (0 no effect, 100 complete control), 13 to 15 days
Summary of the method: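 Paddy species grown to the 2-leaf stage under flooding; blackgrass sprayed postemergence at 2–18 cm (1- to 4-leaf stage). Plants kept in a greenhouse for 13 to 15 days, then visually rated against controls on 0 (no effect) to 100 (complete control).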

velvetleaf [8] = test: Test B pre-/postemergence herbicide test; assay type: in vivo, Abutilon theophrasti; details: for Plant response rating, Velvetleaf: preemergence; for Velvetleaf plant response rating: postemergence, visual rating, scale 0 (no effect) to 100 (complete control)
Summary of the method: as §1

pigweed = test: Test B pre-/postemergence herbicide test; assay type: in vivo, Amaranthus retroflexus; details: for Plant response rating, Pigweed: preemergence; for Pigweed plant response rating: postemergence, visual rating, scale 0 (no effect) to 100 (complete control)
Summary of the method: as §1

Surinam grass = test: Test B pre-/postemergence herbicide test; assay type: in vivo, Urochloa decumbens; details: for Plant response rating, Surinam Grass: preemergence; for Surinam Grass plant response rating: postemergence, visual rating, scale 0 (no effect) to 100 (complete control)
Summary of the method: as §1

corn = test: Test B pre-/postemergence herbicide test; assay type: in vivo, Zea mays; details: for Plant response rating, Corn: preemergence; for Corn plant response rating: postemergence, visual rating, scale 0 (no effect) to 100 (complete control)
Summary of the method: as §1

barnyardgrass [9] = test: Test B pre-/postemergence herbicide test; assay type: in vivo, Echinochloa crus-galli; details: for Plant response rating, Barnyardgrass: preemergence; for Barnyardgrass plant response rating: postemergence, visual rating, scale 0 (no effect) to 100 (complete control)
Summary of the method: as §5

wheat = test: Test B postemergence herbicide test; assay type: in vivo, Triticum aestivum; design: key to Wheat plant response rating: 0 = no effect, 100 = complete control; details: postemergence, visual rating, scale 0 (no effect) to 100 (complete control)
Summary of the method: as §3

[10] = test system: small flower umbrella sedge; test: Test B flooded paddy test; assay type: in vivo, Cyperus difformis; details: 1000 g ai/ha, visual rating, scale 0 to 100 (0 no effect, 100 complete control), 13 to 15 days
Summary of the method: as §4

barnyardgrass [11] = test: Test A pre-/postemergence herbicide test; assay type: in vivo, Echinochloa crus-galli
Summary of the method: as §2

morningglory [12] = test: Test B pre-/postemergence herbicide test; assay type: in vivo, Ipomoea coccinea; details: for Morningglory plant response rating: postemergence, visual rating, scale 0 (no effect) to 100 (complete control)
Summary of the method: as §5

[13] = 500 g ai/ha, visual rating 0-100, 0 no effect, 100 complete control
[14] = 125 g ai/ha, 0 to 100 scale, 0 is no effect, 100 is complete control
[15] = Postemergence, 500 g ai/ha, 0 to 100 scale, 0 no effect, 100 complete control
[16] = Postemergence, 2000 g ai/ha, 0 to 100 scale, 0 no effect, 100 complete control
[17] = Preemergence, 500 g ai/ha, visual rating, 0 to 100 scale (0 no effect, 100 complete control)
[18] = Preemergence, 2000 g ai/ha, visual rating, 0 to 100 scale (0 no effect, 100 complete control)
[19] = preemergence, 500 g ai/ha, visual injury, 0 to 100 scale (0 no effect, 100 complete control)

CCCCNS(=O)(=O)c1cccc(NC(=O)c2cc(C(C)(C)C)nn2C)c1 [Compound 125]
Plant response rating, Foxtail, Giant (giant foxtail [1]; [13]): 0
Foxtail, Giant plant response rating (giant foxtail [1]; 125 g ai/ha): 0
Foxtail, Giant plant response rating (giant foxtail [1]; 500 g ai/ha): 0
Plant response rating, Foxtail, Giant (giant foxtail [1]; [14]): 0
Morningglory plant response rating (morningglory [2]; [15]): 0
Plant response rating, Morningglory (morningglory [2]; [16]): 0
Morningglory plant response rating (morningglory [2]; [17]): 0
Morningglory plant response rating (morningglory [2]; [18]): 0
Oat, Wild plant response rating (wild oat; 125 g ai/ha): 0
Oat, Wild plant response rating (wild oat; 500 g ai/ha): 0
Plant response rating, Lambsquarters (lambsquarters; [13]): 0
Lambsquarters plant response rating (lambsquarters; 125 g ai/ha): 0
Lambsquarters plant response rating (lambsquarters; 500 g ai/ha): 20
Plant response rating, Lambsquarters (lambsquarters; [14]): 0
Blackgrass plant response rating (blackgrass; 125 g ai/ha): 0
Blackgrass plant response rating (blackgrass; 500 g ai/ha): 0
Ducksalad plant response rating (ducksalad): 0
Foxtail, Giant plant response rating (giant foxtail [3]; [15]): 0
Plant response rating, Foxtail, Giant (giant foxtail [3]; [16]): 0
Foxtail, Giant plant response rating (giant foxtail [3]; [17]): 0
Foxtail, Giant plant response rating (giant foxtail [3]; [18]): 0
Crabgrass, Large plant response rating (large crabgrass [4]; [15]): 0
Plant response rating, Crabgrass, Large (large crabgrass [4]; [16]): 0
Crabgrass, Large plant response rating (large crabgrass [4]; [17]): 0
Crabgrass, Large plant response rating (large crabgrass [4]; [18]): 0
Barnyardgrass plant response rating (barnyardgrass [5]): 0
Velvetleaf plant response rating (velvetleaf [6]; [15]): 0
Plant response rating, Velvetleaf (velvetleaf [6]; [16]): 0
Velvetleaf plant response rating (velvetleaf [6]; [18]): 0
Velvetleaf plant response rating (velvetleaf [6]; [19]): 0
Plant response rating, Crabgrass, Large (large crabgrass [7]; [13]): 0
Crabgrass, Large plant response rating (large crabgrass [7]; 125 g ai/ha): 0
Crabgrass, Large plant response rating (large crabgrass [7]; 500 g ai/ha): 0
Plant response rating, Crabgrass, Large (large crabgrass [7]; [14]): 0
Pigweed plant response rating (redroot pigweed; [15]): 20
Plant response rating, Pigweed (redroot pigweed; [16]): 20
Pigweed plant response rating (redroot pigweed; [18]): 0
Pigweed plant response rating (redroot pigweed; [19]): 0
Plant response rating, Cocklebur (cocklebur; [13]): 0
Cocklebur plant response rating (cocklebur; 125 g ai/ha): 0
Cocklebur plant response rating (cocklebur; 500 g ai/ha): 0
Plant response rating, Cocklebur (cocklebur; [14]): 0
Rice plant response rating (rice): 0
Plant response rating, Velvetleaf (velvetleaf [8]; [13]): 0
Velvetleaf plant response rating (velvetleaf [8]; 125 g ai/ha): 0
Velvetleaf plant response rating (velvetleaf [8]; 500 g ai/ha): 0
Plant response rating, Velvetleaf (velvetleaf [8]; [14]): 0
Plant response rating, Pigweed (pigweed; [13]): 0
Pigweed plant response rating (pigweed; 125 g ai/ha): 0
Pigweed plant response rating (pigweed; 500 g ai/ha): 0
Plant response rating, Pigweed (pigweed; [14]): 0
Plant response rating, Surinam Grass (Surinam grass; [13]): 0
Surinam Grass plant response rating (Surinam grass; 125 g ai/ha): 0
Surinam Grass plant response rating (Surinam grass; 500 g ai/ha): 10
Plant response rating, Surinam Grass (Surinam grass; [14]): 0
Plant response rating, Corn (corn; [13]): 0
Corn plant response rating (corn; 125 g ai/ha): 0
Corn plant response rating (corn; 500 g ai/ha): 0
Plant response rating, Corn (corn; [14]): 0
Plant response rating, Barnyardgrass (barnyardgrass [9]; [13]): 0
Barnyardgrass plant response rating (barnyardgrass [9]; 125 g ai/ha): 0
Barnyardgrass plant response rating (barnyardgrass [9]; 500 g ai/ha): 0
Plant response rating, Barnyardgrass (barnyardgrass [9]; [14]): 0
Wheat plant response rating (wheat; 125 g ai/ha): 0
Wheat plant response rating (wheat; 500 g ai/ha): 0
Sedge, Umbrella plant response rating [10]: 0
Barnyardgrass plant response rating (barnyardgrass [11]; [15]): 0
Plant response rating, Barnyardgrass (barnyardgrass [11]; [16]): 0
Barnyardgrass plant response rating (barnyardgrass [11]; [17]): 0
Barnyardgrass plant response rating (barnyardgrass [11]; [18]): 0
Morningglory plant response rating (morningglory [12]; 125 g ai/ha): 0
Morningglory plant response rating (morningglory [12]; 500 g ai/ha): 0
Plant response rating, Morningglory (morningglory [12]; preemergence, 125 g ai/ha, 0 to 100 scale, 0 is no effect, 100 is complete control): 0
